In the supplement of paper PMC9663587:

Legend:
Experiment in all cases: GR value, 72 h; higher = faster growth (1 = untreated, <0 = killing);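 also: breast cancer and non-malignant breast epithelial lines, nine half-log doses, viable cells counted by Hoechst and LIVE/DEAD dye imaging versus time-zero plates and DMSO controls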
YKL-5-124 = compound: C=CC(=O)Nc1ccc(C(=O)Nc2[nH]nc3c2CN(C(=O)N[C@H](CN(C)C)c2ccccc2)C3(C)C)cc1 [YKL-5-124]
BSJ-03-123 = compound: CC(=O)c1c(C)c2cnc(Nc3ccc(N4CCN(CCOCCOCCOCCNC(=O)COc5cccc6c5C(=O)N(C5CCC(=O)NC5=O)C6=O)CC4)cn3)nc2n(C2CCCC2)c1=O [BSJ-03-123]
[1] = compound: CC(=O)c1c(C)c2cnc(Nc3ccc(N4CCNCC4)cn3)nc2n(C2CCCC2)c1=O
[2] = compound: CCc1cnn2c(NCc3ccc[n+]([O-])c3)cc(N3CCCC[C@H]3CCO)nc12
THZ531 = compound: CN(C)C/C=C/C(=O)Nc1ccc(C(=O)N2CCC[C@@H](Nc3ncc(Cl)c(-c4c[nH]c5ccccc45)n3)C2)cc1 [THZ531]

HCC70
GR value (YKL-5-124; 0.1 µM): -0.484 GR
GR value (YKL-5-124; 0.3162 µM): -0.506 GR
GR value (YKL-5-124; 1 µM): -0.608 GR
GR value (YKL-5-124; 3.162 µM): -0.727 GR
GR value (YKL-5-124; 10 µM): -0.871 GR
GR value (BSJ-03-123; 0.001 µM): 1.1 GR
GR value (BSJ-03-123; 0.003162 µM): 0.898 GR
GR value (BSJ-03-123; 0.01 µM): 1 GR
GR value (BSJ-03-123; 0.03162 µM): 0.996 GR
GR value (BSJ-03-123; 0.1 µM): 0.911 GR
GR value (BSJ-03-123; 0.3162 µM): 0.848 GR
GR value (BSJ-03-123; 1 µM): 0.865 GR
GR value (BSJ-03-123; 3.162 µM): 0.754 GR
GR value (BSJ-03-123; 10 µM): -0.525 GR
GR value ([1]; 0.0003162 µM): 0.988 GR
GR value ([1]; 0.001 µM): 1.07 GR
GR value ([1]; 0.003162 µM): 1.08 GR
GR value ([1]; 0.01 µM): 1.07 GR
GR value ([1]; 0.03162 µM): 1.09 GR
GR value ([1]; 0.1 µM): 0.961 GR
GR value ([1]; 0.3162 µM): 1.06 GR
GR value ([1]; 1 µM): 1.05 GR
GR value ([1]; 3.162 µM): 0.896 GR
GR value ([2]; 0.0001 µM): 1.05 GR
GR value ([2]; 0.0003162 µM): 0.913 GR
GR value ([2]; 0.001 µM): 1.13 GR
GR value ([2]; 0.003162 µM): 1.26 GR
GR value ([2]; 0.01 µM): 0.835 GR
GR value ([2]; 0.03162 µM): -0.865 GR
GR value ([2]; 0.1 µM): -0.892 GR
GR value ([2]; 0.3162 µM): -0.885 GR
GR value ([2]; 1 µM): -0.901 GR
GR value (THZ531; 0.0001 µM): 1.09 GR
GR value (THZ531; 0.0003162 µM): 0.962 GR
GR value (THZ531; 0.001 µM): 1.15 GR
GR value (THZ531; 0.003162 µM): 1.02 GR
GR value (THZ531; 0.01 µM): 1.16 GR
GR value (THZ531; 0.03162 µM): 0.962 GR
GR value (THZ531; 0.1 µM): -0.197 GR
GR value (THZ531; 0.3162 µM): -0.793 GR
GR value (THZ531; 1 µM): -0.941 GR
